Experimental data as given in the NIST ThermoML archive (doi:10.1021/je700152c).

Experiment: molar heat capacity at saturation pressure

CCCCn1cc[n+](C)c1.Cc1ccc(S(=O)(=O)[O-])cc1 [1-butyl-3-methylimidazolium tosylate]
Conditions | molar heat capacity [J/K/mol]
283.38 K, Crystal 1 | 400.74
283.57 K, Crystal 1 | 401.36
284.36 K, Metastable crystal | 414.71
285.22 K, Crystal 1 | 405.4
285.23 K, Crystal 1 | 405.09
285.41 K, Crystal 1 | 405.71
286.18 K, Metastable crystal | 418.44
287.05 K, Crystal 1 | 409.74
287.07 K, Crystal 1 | 409.12
287.24 K, Crystal 1 | 410.37
288 K, Metastable crystal | 422.47
288.87 K, Crystal 1 | 414.71
288.9 K, Crystal 1 | 414.09
289.06 K, Crystal 1 | 415.64
289.81 K, Metastable crystal | 426.82
290.68 K, Crystal 1 | 419.06
290.72 K, Crystal 1 | 418.75
290.87 K, Crystal 1 | 419.99
291.62 K, Metastable crystal | 431.16
292.49 K, Crystal 1 | 423.71
292.53 K, Crystal 1 | 423.4
292.67 K, Crystal 1 | 424.02
293.42 K, Metastable crystal | 435.51
294.29 K, Crystal 1 | 427.13
294.33 K, Crystal 1 | 428.06
294.47 K, Crystal 1 | 427.44
295.21 K, Metastable crystal | 439.86
296.09 K, Crystal 1 | 431.47
296.13 K, Crystal 1 | 432.72
296.27 K, Crystal 1 | 432.09
296.99 K, Metastable crystal | 445.13
297.87 K, Crystal 1 | 436.13
297.92 K, Crystal 1 | 437.06
298.05 K, Crystal 1 | 436.75
298.77 K, Metastable crystal | 450.1
299.66 K, Crystal 1 | 440.79
299.71 K, Crystal 1 | 442.65
299.83 K, Crystal 1 | 442.03
300.21 K, Crystal 1 | 440.48
300.54 K, Metastable crystal | 455.38
301.54 K, Crystal 1 | 446.68
301.6 K, Crystal 1 | 447.93
301.72 K, Crystal 1 | 447.62
302.1 K, Crystal 1 | 445.44
302.41 K, Metastable crystal | 461.89
303.54 K, Crystal 1 | 452.58
303.6 K, Crystal 1 | 453.2
303.71 K, Crystal 1 | 453.82
304.1 K, Crystal 1 | 451.03
304.39 K, Metastable crystal | 469.03
305.52 K, Crystal 1 | 458.79
305.59 K, Crystal 1 | 460.34
305.69 K, Crystal 1 | 460.03
306.09 K, Crystal 1 | 457.24
306.36 K, Metastable crystal | 476.79
307.5 K, Crystal 1 | 465.93
307.57 K, Crystal 1 | 467.79
307.67 K, Crystal 1 | 467.17
308.07 K, Crystal 1 | 463.76
308.32 K, Metastable crystal | 485.8
309.47 K, Crystal 1 | 473.69
309.54 K, Crystal 1 | 474.93
309.64 K, Crystal 1 | 475.24
310.04 K, Crystal 1 | 471.52
310.26 K, Metastable crystal | 496.04
311.42 K, Crystal 1 | 482.69
311.49 K, Crystal 1 | 484.55
311.59 K, Crystal 1 | 484.24
311.76 K, Metastable crystal | 501.63
311.99 K, Crystal 1 | 479.59
313.37 K, Crystal 1 | 492.63
313.44 K, Crystal 1 | 494.8
313.53 K, Crystal 1 | 493.56
313.67 K, Metastable crystal | 515.91
313.94 K, Crystal 1 | 489.21
315.3 K, Crystal 1 | 503.49
315.37 K, Crystal 1 | 505.97
315.46 K, Crystal 1 | 503.18
315.56 K, Metastable crystal | 532.05
315.87 K, Crystal 1 | 499.45
317.22 K, Crystal 1 | 514.97
317.29 K, Crystal 1 | 518.39
317.39 K, Crystal 1 | 512.18
317.42 K, Metastable crystal | 550.67
317.78 K, Crystal 1 | 512.49
319.11 K, Crystal 1 | 529.25
319.18 K, Crystal 1 | 534.53
319.26 K, Metastable crystal | 573.33
319.29 K, Crystal 1 | 524.29
319.67 K, Crystal 1 | 527.08
320.98 K, Crystal 1 | 545.71
321.05 K, Crystal 1 | 553.47
321.06 K, Metastable crystal | 600.03
321.17 K, Crystal 1 | 538.26
321.53 K, Crystal 1 | 544.77
322.82 K, Crystal 1 | 565.88
322.82 K, Metastable crystal | 633.24
322.89 K, Crystal 1 | 575.51
323.03 K, Crystal 1 | 555.95
323.37 K, Crystal 1 | 566.5
324.53 K, Metastable crystal | 675.15
324.63 K, Crystal 1 | 590.72
324.69 K, Crystal 1 | 602.51
324.85 K, Crystal 1 | 578.61
325.17 K, Crystal 1 | 593.51
326.19 K, Metastable crystal | 727.92
326.41 K, Crystal 1 | 621.45
326.45 K, Crystal 1 | 635.42
326.64 K, Crystal 1 | 607.48
326.92 K, Crystal 1 | 628.28
328.13 K, Crystal 1 | 660.56
328.17 K, Crystal 1 | 676.7
328.38 K, Crystal 1 | 644.42
328.62 K, Crystal 1 | 675.15
329.79 K, Crystal 1 | 710.85
329.82 K, Crystal 1 | 728.23
330.07 K, Crystal 1 | 691.29
330.24 K, Crystal 1 | 740.02
340.93 K, Metastable crystal | 542.91
342.74 K, Crystal 1 | 648.45
342.82 K, Liquid | 542.91
343.34 K, Crystal 1 | 571.47
343.81 K, Crystal 1 | 550.05
343.97 K, Liquid | 543.84
344.54 K, Liquid | 545.4
344.72 K, Liquid | 544.77
345.34 K, Liquid | 544.46
346.06 K, Liquid | 544.77
346.43 K, Liquid | 546.33
346.46 K, Liquid | 546.64
346.61 K, Liquid | 546.02
347.35 K, Liquid | 545.71
348.14 K, Liquid | 546.02
348.31 K, Liquid | 547.57
348.49 K, Liquid | 547.26
348.72 K, Liquid | 547.57
348.77 K, Liquid | 547.57
350.2 K, Liquid | 549.43
350.6 K, Liquid | 549.12
350.64 K, Liquid | 549.12
352.08 K, Liquid | 550.98
352.48 K, Liquid | 550.36
352.5 K, Liquid | 550.36
353.97 K, Liquid | 552.22
354.36 K, Liquid | 551.6
354.37 K, Liquid | 551.91
355.86 K, Liquid | 553.47
356.24 K, Liquid | 553.16
356.25 K, Liquid | 553.16
357.74 K, Liquid | 555.02
358.11 K, Liquid | 554.71
358.12 K, Liquid | 554.71
359.64 K, Liquid | 556.26
359.97 K, Liquid | 555.95
360 K, Liquid | 555.95
361.53 K, Liquid | 557.81
361.84 K, Liquid | 557.5
361.88 K, Liquid | 557.5
363.42 K, Liquid | 559.05
363.75 K, Liquid | 558.74
365.3 K, Liquid | 560.3
365.62 K, Liquid | 559.98
367.19 K, Liquid | 561.85
367.5 K, Liquid | 561.54
